Like-named read-outs stand apart in the source and are kept apart here. A value given as a limit tells only on which side of the number the result lay.

In one experiment the target is T1, HIV protease (Human immunodeficiency virus type 1 group M subtype B, UniProt P04585).
T1 construct: plasmid containing HIV protease under the control of an inducible T7 promoter; made in house; host or cells: E. coli (inclusion bodies, T7 promoter)
Briefly: biochemical. Also on record: species or system HIV-1. How it is done:
HIV Protease Inhibition Assay—Spectroscopic Method
Inclusion bodies were solubilized in 8M urea, 50 mM tris pH 8.0. Protease activity was recovered by dilution 20-fold into buffer containing 50 mM sodium acetate pH 5.5, 1 mM EDTA, 10% glycerol and 5% ethylene glycol. Enzyme was used at a final concentration of 1.0-10 ug/ml.
Stock solutions of 10 mM were prepared in DMSO.
All further dilutions were done in DMSO.

Another experiment concerns HIV-1 (RF) in MT-2 cells. As to the kind of experiment: microbe, parasite or virus in culture. Format: cell-based. In outline:
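HIV-1 laboratory strains (RF, MN, IIIB) grown in H9 cells in RPMI 1640 with 5% FCS; infections in MT-2 cells. Viral RNA quantified by hybridization with biotinylated gag/pol capture probes on streptavidin plates and alkaline phosphatase-conjugated reporter probes; BH10 gag-pol in vitro transcripts serve as RNA standards.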

The mark [1] stands for this setting: Table 1d, upper part, read-out: Ki.
Where [2] appears, read: Human immunodeficiency virus 1, MT2, 24 h, Table 1d, upper part, read-out: IC90.
Setting [3] is: Human immunodeficiency virus 1, MT2, Table 1e, read-out: IC90.
Where [4] appears, read: second table headed Table 2A, read-out: Ki.

As to `O=C1N(CC=Cc2ccccc2)C(Cc2ccccc2)C(O)C(O)C(Cc2ccccc2)N1CC=Cc1ccccc1` (stereo not shown) [Example 1AU], on HIV protease (Table 1a, read-out: Ki), the Ki (in general, a dissociation constant, usually derived from enzyme kinetics or from competition with a known ligand) was < 0.01 µM.
Regarding `O=C1OC2C(OC1=O)C(Cc1ccccc1)N(Cc1ccc3ccccc3c1)C(=O)N(Cc1ccc3ccccc3c1)C2Cc1ccccc1` (stereo not shown) [Example 7P], at HIV protease (setting [1]), the Ki is < 0.01 µM. For the same compound, in the experiment with HIV-1 (RF) in MT-2 cells (setting [2]), the 90% effect concentration (IC90) (commonly the concentration at which the effect reaches the 90% level) is < 10 mg/L.
For the compound `CC(=O)OC1C(Cc2ccccc2)N(Cc2ccccc2)C(=O)N2C(Cc3ccccc3)C12` (stereo not shown) [Example 21B], the Ki on HIV protease (Table 2j, read-out: Ki) is > 1 µM. For the same compound, the IC90 result with HIV-1 (RF) in MT-2 cells (Table 2j) is “++/+ (The ++/+ is used in the cases where an IC90 was determined to be >50 μg/mL)”.
For `O=C1N(Cc2cccc(O)c2)C(Cc2ccccc2)C(O)C(Cc2ccccc2)N1Cc1cccc(O)c1` (stereo not shown) [Example 22A], on HIV protease (Table 2k, read-out: Ki), the Ki lay within 0.01 to 1 µM.
For `NC(=O)c1cccc(CN2C(=O)N(Cc3cccc(C(N)=O)c3)C(Cc3ccccc3)C(O)C2CCc2ccccc2)c1` (stereo not shown) [Example 8AP], the Ki at HIV protease (Table 1e, read-out: Ki) was > 1 µM. In addition, in the experiment with HIV-1 (RF) in MT-2 cells (setting [3]), the IC90 is > 100 mg/L.
On to `O=C1NC(Cc2ccccc2)C(O)C(O)C(Cc2ccccc2)N1` (stereo not shown) [Example 1E], for which the Ki at HIV protease (Table 1a, read-out: Ki) was > 1 µM.
With `CC(C)CCCC(C)CCN1C(=O)N(CCC(C)CCCC(C)C)C(Cc2ccccc2)C(O)C(O)C1Cc1ccccc1` (stereo not shown) [Example 1N], at HIV protease (Table 1a, read-out: Ki), the Ki lay in the range of 0.01 to 1 µM.
The same measure, in the same setting: with `C=CCN1C(=O)N(CC=C)C(Cc2ccccc2)C(O)C(O)C1Cc1ccccc1` (stereo not shown) [Example 1H] the figure was > 1 µM.
Take `O=C1N(Cc2ccccc2)C(CCc2ccccc2)[C@@H](O)[C@@H](Cc2ccccc2)N1Cc1ccccc1` (stereo partly shown) [Example 8AD]: the Ki at HIV protease (Table 1e, read-out: Ki) lay within 0.01 to 1 µM. For the same compound, in the experiment on HIV-1 (RF) in MT-2 cells (setting [3]), the IC90 was < 10 mg/L.
Take `O=C1N(Cc2ccccn2)C(Cc2ccccc2)C(O)C(O)C(Cc2ccccc2)N1Cc1ccccn1` (stereo not shown) [Example 1AR]: the Ki at HIV protease (Ki) fell in the range of 0.01 to 1 µM.
In the case of `O=C1N(Cc2cccc(CO)c2)C(Cc2ccccc2)C(O)C(C(Br)Cc2ccccc2)N1Cc1cccc(CO)c1` (stereo not shown) [Example 8V], on HIV protease (Table 1e, read-out: Ki), the inhibition constant (Ki) is 0.01 to 1 µM. Further, the IC90 in the experiment on HIV-1 (RF) in MT-2 cells (setting [3]) was < 10 mg/L.
Regarding `O=C1N(Cc2ccccc2)C(Cc2ccccc2)C(OCc2ccccc2)C2C(Cc3ccccc3)N12` (stereo not shown) [Example 21C], at HIV protease (Table 2j, read-out: Ki), the Ki lay in the range of 0.01 to 1 µM.
Consider `O=C1N(Cc2cccc(O)c2)C(C(F)Cc2ccccc2)[C@@H](O)[C@@H](Cc2ccccc2)N1Cc1cccc(O)c1` (stereo partly shown) [Example 8F], for which, at HIV protease (Ki), the Ki is 0.01 to 1 µM. In the experiment on HIV-1 (RF) in MT-2 cells (setting [3]), the IC90 is < 10 mg/L.
On to `CC(C)CCCC(C)CCN1C(=O)NC(Cc2ccccc2)C(O)C(O)C1Cc1ccccc1` (stereo not shown) [Example 1Q], for which the Ki on HIV protease (Table 1a, read-out: Ki) fell in the range of 0.01 to 1 µM.
For the compound `CCCN1C(=O)N(CCC)C(Cc2ccccc2)C(O)C(O)C1Cc1ccccc1` (stereo not shown) [Example 1V], at HIV protease (Ki), the Ki is < 0.01 µM.
As for `O=C1OC2C(O1)C(Cc1ccccc1)N(Cc1ccc3ccccc3c1)C(=O)N(Cc1ccc3ccccc3c1)C2Cc1ccccc1` (stereo not shown) [Example 7L], at HIV protease (Ki), the Ki was in the range of 0.01 to 1 µM. The IC90 in the experiment with HIV-1 (RF) in MT-2 cells (setting [2]) is > 100 mg/L.
`O=C1N(Cc2ccncc2)C(Cc2ccccc2)C(O)C(O)C(Cc2ccccc2)N1Cc1ccncc1` (stereo not shown) [Example 1AI]: at HIV protease (Table 1a, read-out: Ki), the Ki lay within 0.01 to 1 µM.
As for `C=CCN1C(=O)N(CC=C)C(Cc2ccccc2)C2OS(=O)OC2C1Cc1ccccc1` (stereo not shown) [Example 7C], at HIV protease (setting [1]), the Ki was < 0.01 µM. The IC90 in the experiment with HIV-1 (RF) in MT-2 cells (setting [2]) was < 10 mg/L.
For `O=C1N(Cc2ccc3ccccc3c2)C(Cc2ccccc2)C2OS(=O)OC2C(Cc2ccccc2)N1Cc1ccc2ccccc2c1` (stereo not shown) [Example 7M] the same measures were < 0.01 µM and < 10 mg/L.
In the case of `CCCC1(OC)OC2C(O1)C(Cc1ccccc1)N(Cc1ccc3ccccc3c1)C(=O)N(Cc1ccc3ccccc3c1)C2Cc1ccccc1` (stereo not shown) [Example 7S], the Ki at HIV protease (setting [1]) was > 1 µM. Besides, the IC90 with HIV-1 (RF) in MT-2 cells (setting [2]) is > 50 mg/L.
`O=C1N(Cc2ccccc2)C(Cc2ccccc2)C(O)C(O)C(Cc2ccccc2)N1CC1CC1` (stereo not shown) [Example 2F]: the Ki on HIV protease (Table 2A, read-out: Ki) is < 0.01 µM; at HIV protease (setting [4]), < 0.01 µM. In addition, the IC90 in the experiment with HIV-1 (RF) in MT-2 cells (Human immunodeficiency virus 1, MT2, Table 2A, read-out: IC90) is < 10 mg/L; with HIV-1 (RF) in MT-2 cells (Human immunodeficiency virus 1, MT2, second table headed Table 2A, read-out: IC90), < 10 mg/L.
Regarding `CC(C)C(NCCN1C(=O)N(CCO)C(Cc2ccccc2)C(O)C(O)C1Cc1ccccc1)C(=O)OCc1ccccc1` (stereo not shown) [Example 1L], the Ki at HIV protease (Table 1a, read-out: Ki) is > 1 µM.
Still for that read-out and setting: for `CC(C)=CCN1C(=O)N(C)C(Cc2ccccc2)C(O)C(O)C1Cc1ccccc1` (stereo not shown) [Example 1BD] the value was 0.01 to 1 µM.
Still for that read-out and setting: for `CC(C)C(NCCN1C(=O)N(CCO)C(Cc2ccccc2)C(O)C(O)C1Cc1ccccc1)C(=O)OCc1ccccc1` (stereo not shown) [Example 1T] the value was 0.01 to 1 µM; for `C=CCN1C(=O)N(CC2CC2)C(Cc2ccccc2)C(O)C(O)C1Cc1ccccc1` (stereo not shown) [Example 1AW], < 0.01 µM.
For the compound `O=C1N[C@H](C(O)Cc2ccccc2)[C@@H](O)[C@@H](Cc2ccccc2)N1Cc1ccccc1` (stereo partly shown) [Example 8Q], the Ki at HIV protease (Table 1e, read-out: Ki) lay within 0.01 to 1 µM. The IC90 result in the experiment on HIV-1 (RF) in MT-2 cells (Table 1e) was “++ (++=10 to 100 μg/mL)”.
For the compound `O=C1N(CC2CC2)C(Cc2ccccc2)C2OS(=O)OC2C(Cc2ccccc2)N1CC1CC1` (stereo not shown) [Example 7F], the Ki on HIV protease (setting [1]) is < 0.01 µM. Moreover, the IC90 in the experiment with HIV-1 (RF) in MT-2 cells (setting [2]) is < 10 mg/L.
Regarding `[N-]=[N+]=NC(Cc1ccccc1)C1C(O)C(Cc2ccccc2)N(Cc2ccc3ccccc3c2)C(=O)N1Cc1ccc2ccccc2c1` (stereo not shown) [Example 7Y], at HIV protease (Table 1e, read-out: Ki), the Ki lay in the range of 0.01 to 1 µM. For the same compound, in the experiment with HIV-1 (RF) in MT-2 cells (setting [3]), the IC90 is > 100 mg/L.
As to `CC(C)=CCN1C(=O)N(C)C(Cc2ccccc2)C(O)C(O)C1Cc1ccccc1` (stereo not shown) [Example 2D], the Ki on HIV protease (Table 2A, read-out: Ki) was in the range of 0.01 to 1 µM; at HIV protease (setting [4]), 0.01 to 1 µM.
For `C=CCN1C(=O)N(CC=C)[C@H](Cc2ccccc2)[C@H](O)[C@H]1[C@H](O)Cc1ccccc1` [Example 8AA], the Ki on HIV protease (Table 1e, read-out: Ki) was in the range of 0.01 to 1 µM.
Take `CC(C)=CCN1C(=O)NC(Cc2ccccc2)C(O)C(O)C1Cc1ccccc1` (stereo not shown) [Example 1AE]: on HIV protease (Table 1a, read-out: Ki), the Ki was < 0.01 µM.
`C=CCN1C(=O)N(CC=C)[C@H](Cc2ccccc2)[C@@H](O)[C@H](O)[C@H]1Cc1ccccc1` [Example 1G] returned a Ki at HIV protease (Ki, Table 1a) of 0.01 to 1 µM.
On to `CC(C)C(NCCN1C(=O)N(CCNC(C(=O)OCc2ccccc2)C(C)C)C(Cc2ccccc2)C(O)C(O)C1Cc1ccccc1)C(=O)OCc1ccccc1` (stereo not shown) [Example 1U], for which the Ki on HIV protease (Table 1a, read-out: Ki) was > 1 µM.
Still for that read-out and setting: with `COCCOCCN1C(=O)N(CCOCCOC)C(Cc2ccccc2)C(O)C(O)C1Cc1ccccc1` (stereo not shown) [Example 1J] the figure was > 1 µM.
Turning to `CC(C)CN1C(=O)N(CC(C)C)C(Cc2ccccc2)C(O)C(O)C1Cc1ccccc1` (stereo not shown) [Example 1AO], the inhibition constant (Ki) on HIV protease (Table 1a, read-out: Ki) is 0.01 to 1 µM.
Still for that read-out and setting: with `O=C1N(CCCc2ccccc2)C(Cc2ccccc2)C(O)C(O)C(Cc2ccccc2)N1CCCc1ccccc1` (stereo not shown) [Example 1AS] the figure was 0.01 to 1 µM; with `COCCOCCOCCN1C(=O)NC(Cc2ccccc2)C(O)C(O)C1Cc1ccccc1` (stereo not shown) [Example 1R], > 1 µM.
On to `O=C1N(Cc2cccc(OCc3ccccc3)c2)C(Cc2ccccc2)C(O)C(C(F)Cc2ccccc2)N1Cc1cccc(OCc2ccccc2)c1` (stereo not shown) [Example 8E], for which the Ki on HIV protease (Table 1e, read-out: Ki) lay within 0.01 to 1 µM.
Consider `C=CCN1C(=O)N(CC=C(C)C)C(Cc2ccccc2)C(O)C(O)C1Cc1ccccc1` (stereo not shown) [Example 1AT], for which the Ki on HIV protease (Table 1a, read-out: Ki) is < 0.01 µM.
The same measure, in the same setting: for `CN1C(=O)N(Cc2ccccc2)C(Cc2ccccc2)C(O)C(O)C1Cc1ccccc1` (stereo not shown) [Example 1AY] the value was 0.01 to 1 µM; for `CC(C)=CCCC(C)=CCN1C(=O)N(CC=C(C)CCC=C(C)C)C(Cc2ccccc2)C(O)C(O)C1Cc1ccccc1` (stereo not shown) [Example 1K], > 1 µM.
Take `C=CCN1C(=O)N(CC=C)C(Cc2ccccc2)C(O)C(O)C1Cc1ccccc1` (stereo not shown) [Example 1D]: at HIV protease (Table 1a, read-out: Ki), the Ki was > 1 µM.
`COCCOCO[C@H]1[C@@H](Cc2ccccc2)N(Cc2ccc3ccccc3c2)C(=O)N(Cc2ccc3ccccc3c2)[C@@H]1C(F)Cc1ccccc1` (stereo partly shown) [Example 8D]: on HIV protease (Table 1e, read-out: Ki), the Ki was in the range of 0.01 to 1 µM.
Take `O=C1N(Cc2ccccc2)C(Cc2ccccc2)C(O)C(O)C(Cc2ccccc2)N1Cc1ccccc1` (stereo not shown) [Example 1I]: on HIV protease (Ki), the Ki was > 1 µM.
